What was measured:
[1] = test system: LPS-induced neutrophil infiltration into the lung; assay: Lipopolysaccharide (LPS) mouse lung inflammation model; type: in vivo, CD-1 mice; details: 10 mg/kg oral, 1 hr before and 2 hrs after LPS 2.5 mg/kg intratracheal, BAL 6 hr post-LPS
Method: In this model, LPS was instilled into the lungs of mice to induce a neutrophilia in the lung tissue. The neutrophilia can be measured in the BAL fluid during lung lavage at various times after challenge with LPS. The neutrophilia develops with a significant increase in cells in the BAL after 6 hrs and achieves a maximum response by 24 hrs. CD-1 mice received lipopolysaccharide (LPS) 2.5 mg/kg in phosphate buffered saline (PBS) or PBS in a volume of 50 μL by intracheal instillation into the lung. The animals were lightly anesthetized using isofluorane to enable application of the LPS. When anesthetized the animals were placed on a board at an angle of 45°. The tongue was rolled to one side and LPS was administered directly into the trachea in a volume of 50 μL. The animal remained in position for 1-2 minutes to ensure the LPS remained in the lung. At the end of the LPS challenge time, animals were euthanized by an overdose of isofluorane. The trachea was exposed and the lungs were intubated using a 21 G catheter tube. The lungs were lavaged with 2×1 mL of PBS at room temperature. […] The differential cell counts were determined using an automated cell counter (Abraxia) set to measure mouse cells. Cell concentration of the resuspended sample was expressed as total cells recovered in the total volume of recovered BAL. […]

[2] = Solubilized concentration of compound in eye drop formulation (HPLC); type: physicochemical; details: eye drop formulation: 20% hydroxypropyl β-cyclodextrin, 0.5% HPMC, 1.6 mM EDTA in PBS
Method: Eye drops were prepared by adding compounds at a theoretical concentration of 10 mg/mL to a 2 mL microcentrifuge tube before adding a stir bar and the selected formulation that consisted of (w/v) hydroxypropyl β-cyclodextrin (Trappsol) (20%), hydroxyl propyl methylcellulose (0.5%) and EDTA (1.6 mM) in phosphate buffered saline. Tubes containing compound in eye drop formulation were heated to 60-65° C. and stirred at least 4 hours to overnight. The tubes were removed from the heat bath and centrifuged at 10,000 ref for 5 minutes to clear the solution of any residual drug not in solution. The supernatant was removed from the tubes and one 10 μL sample was removed for HPLC analysis of solubilized by HPLC using an ACE C18 column (4.5 mm×150 mm, 5 m), eluted with acetonitrile/methanol/water mixture with H3PO4, pH 3.5 (50:30:20) with a flow rate of 2.5 mL/min. The solubilized concentration of each compound was calculated by interpolation from a standard curve based on reference standards solubilized in methanol when the assay was validated.
In Table 6, the data from distribution studies performed in Lewis rats show the concentration of each compound present in the retina 0.5 hr after the administration of a 10 μL drop of each topical formation is provided. Compounds were paired and individual formulations mixed at a ratio to make a mixture that contained ~2.5 mg/mL of each compound.

[3] = biological target: T1, recombinant human leukotriene A4 hydrolase enzyme (Homo sapiens, UniProt P09960); assay: Amino-peptidase assay, PGP; type: biochemical; details: concentration not given
T1 construct: purchased Cayman Chemical 10007817
T1 sequence (P09960 1-611): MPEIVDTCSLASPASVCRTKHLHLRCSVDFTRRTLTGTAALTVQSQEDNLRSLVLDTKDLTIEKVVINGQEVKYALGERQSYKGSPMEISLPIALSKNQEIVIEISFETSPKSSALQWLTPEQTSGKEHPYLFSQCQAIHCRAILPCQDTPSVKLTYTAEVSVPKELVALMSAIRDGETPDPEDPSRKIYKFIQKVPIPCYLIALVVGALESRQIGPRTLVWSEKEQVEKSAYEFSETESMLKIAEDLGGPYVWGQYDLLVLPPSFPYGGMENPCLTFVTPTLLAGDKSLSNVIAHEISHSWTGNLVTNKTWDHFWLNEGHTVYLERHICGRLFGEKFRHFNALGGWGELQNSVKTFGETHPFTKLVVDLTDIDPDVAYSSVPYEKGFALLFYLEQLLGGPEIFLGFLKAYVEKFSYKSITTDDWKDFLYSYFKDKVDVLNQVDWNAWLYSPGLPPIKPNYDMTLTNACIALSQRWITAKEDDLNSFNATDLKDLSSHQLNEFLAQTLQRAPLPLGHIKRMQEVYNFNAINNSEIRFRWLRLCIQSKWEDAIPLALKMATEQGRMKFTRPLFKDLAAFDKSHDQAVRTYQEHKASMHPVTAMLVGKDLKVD
Method: A series of compound concentrations were pre-incubated with 50 ng of recombinant human leukotriene A4 hydrolase enzyme (Cayman Chemical, 10007817) in 50 L assay buffer (50 mM Tris-HCl, 100 mM KCl). The reaction was stimulated by adding 50 L 1 mM proline-glycine-proline (Bachem, H-7284) and incubated for 30 minutes at 37° C. The reaction was stopped with the addition of 150 μL of glacial acetic acid. The amount of free proline released from the peptide was detected through a reaction with ninhydrin. 150 μL of 25 mg/mL ninhydrin (BDH, B10132) in 60:40 acetic acid/water was added to each sample, and boiled for 30 minutes at 100° C. and once samples had cooled to room temperature, 350 μL of toluene was added to extract the ninhydrin reaction product. The amount of free proline was determined by comparing the absorbance at 520 nm to the L-proline (Sigma Aldrich, 81709) reference standard. Inhibition of free proline production was calculated based on control samples.

Row | Structure (SMILES) | Effect on LPS-induced neutrophil infiltration into the lung (BAL) [1] | Concentration of compound in formulation [2] [µg/mL] | % Inhibition aminopeptidase-PGP activity of LTA4H [3] [%]
1 | CCC(O)(CCc1ccc(Oc2nc3c(SC)cccc3s2)c(OC)c1)C(F)(F)F (stereo not drawn) [Compound 104, 1-{3-methoxy-4-[(4-methylsulfanyl-1,3-benzothiazol-2-yl)oxy]phenyl}-3-(trifluoromethyl)pentan-3-ol] | inhibitory effect | 2860 | 
2 | CC(O)(CCc1ccc(OCc2ccc3ccccc3n2)cc1)C(F)(F)F (stereo not drawn) [Compound 183, 1,1,1-trifluoro-2-methyl-4-[4-(quinolin-2-ylmethoxy)phenyl]butan-2-ol] |  |  | >75

Source: patent US12686668B2, “Leukotriene synthesis inhibitors” (Naegis Pharmaceuticals Inc., priority 2019, dated 2026)
